One data set has as its system C. reinhardtii CC-1928. The data set can be described thus: Effect of copper on activity of hydrazones: in vitro growth inhibition of C. reinhardtii in TAP Cu minus / TAP Cu plus medium (Example 10). The class given is cell-based, Chlamydomonas reinhardtii. Particulars: test compound 1 μg/mL, 48 h; for inhibition of growth at 1 µg/mL: Chlamydomonas reinhardtii, TAP Cu minus medium, read-out: % Inhn. Minus Copper Observed; for % Inhn. Plus Copper Observed: TAP Cu plus medium (CuCl2). The procedure: In vitro toxicity assays against C. reinhardtii CC-1928 (wild type mt+137c green in dark subclone) obtained from the Chlamydomonas Resource Center at Duke University were conducted using TAP liquid growth medium described by Gorman and Levine Proc. Natl. Acad. Sci. USA 1965, 54, 1665-1669 except that CuSO4.5H2O, normally included as a component of Hutner's trace element stock solution (Hutner et al. Proc. Am. Philos. Soc. 1950, 94, 152-170), was omitted. The TAP medium lacking Cu (TAP Cu minus) was prepared by adding 400 mg NH4Cl, 10 mL of 100× Tris-Acetate (242 g Tris-base and 100 mL glacial acetic acid in 1000 mL milli Q water), and 8.3 mL of 120.5× phosphate buffer (14.34 g K2HPO4 and 7.26 g KH2PO4 in 1000 mL milli Q water) to milli Q water to make a total volume of 1 liter. The medium was treated with 0.5 g Chelex 100 resin (Bio-Rad Analytical grade, 50-100 mesh, sodium form, cat#142-2822) by stirring at room temperature for 1 hour. 900 mL were decanted and 45.9 mg of CaCl2.2H2O, 90 mg of MgSO4.7H2O and 0.9 mL Hutner's trace elements lacking CuSO4.5H2O were added and the solution was filter-sterilized. Medium containing copper (TAP Cu plus) was prepared by adding CuCl2.2H2O to the TAP Cu minus medium at 20 μM. Test compounds were dissolved in dimethylsulfoxide (DMSO) at 2 mg/mL then dilutions in TAP Cu minus and TAP Cu plus media were prepared in sterilized microcentrifuge tubes at 2 μg/mL. 100 μL aliquots of diluted compound were dispensed into flat-bottomed 96-well microtiter plates. C. reinhardtii was maintained under 12 h of light on TAP agar plates at 18° C. A loopful of cells was added to 50 mL of TAP Cu minus medium and the culture incubated with shaking at 200 rpm at 27° C. for 24 h. The culture (10 to 20 mL aliquot) was centrifuged in a bench centrifuge at 2000 rpm for 2 min. The resulting cell pellet was resuspended in 5 mL sterile milli Q water (which had been treated with Chelex 100 resin using 0.5 g resin per liter of water by stirring at room temperature for 1 h), and recentrifuged. The cells were resuspended in TAP Cu minus medium, and the suspension adjusted to 2×10^5 spores per mL. Microtiter plates containing compounds as described above were inoculated with 100 μL of this cell suspension and the plates incubated at 27° C. for 48 h before assessing algal growth by measuring light scattering in a NepheloStar plate-reader. Growth inhibition was determined by comparing growth in the presence of test compound with growth in control wells lacking test compound. Results for growth inhibition by test compounds at 1 μg/mL in TAP Cu plus medium (% Inhn Plus Copper Observed) were compared with predicted values (% Inhn Plus Copper Predicted) that were calculated using the formula set forth by S. R. Colby in Weeds 1967, 15, 20-22 based on results obtained for the same compounds in TAP Cu minus medium (% Inhn Minus Copper Observed). […] Results illustrate that hydrazones and copper produce a synergistic algicidal effect towards C. reinhardtii.

Data set [1] deals with Synechocystis sp. strain 6803. Put plainly: Effect of copper on activity of hydrazones: in vitro growth inhibition of Synechocystis in BG-11 Cu minus / Cu plus medium (Example 11). The data set is classed as cell-based. The conditions noted are these: 72 h; for % Inhn. Plus Copper Observed: BG-11 Cu plus medium. The procedure:
In vitro toxicity assays against the cyanobacterium (blue-green alga) Synechocystis sp. strain 6803 were conducted using BG-11 medium except that copper micronutrient, normally included as CuSO4.5H2O, was omitted. The medium, termed BG-11 Cu minus, was prepared by dissolving 1.5 g NaNO3, 40 mg K2HPO4, 6 mg citric acid, 1 mg Na2EDTA and 20 mg Na2CO3 in 1 liter of milli Q water and treating the solution with 0.5 g Chelex 100 resin (Bio-Rad Analytical grade, 50-100 mesh, sodium form, cat#142-2822) by stifling at room temperature for 1 h. 900 mL were decanted and 67.5 mg MgSO4.7H2O, 32.4 mg […], 5.4 mg ferric ammonium citrate and 0.9 mL trace metal mix A5 without copper (2.86 g H3BO3, 1.81 g MnCl2.4H2O, 222 mg ZnSO4.7H2O, 390 mg Na2MoO4.2H2O and Co(NO3)2.6H2O in 1 L Milli Q water) was added. The pH was adjusted to 7.1 and the medium was filter-sterilized. Medium containing copper (BG-11 Cu plus) was prepared by adding CuCl2.2H2O to the BG-11 Cu minus medium at 0.2 μM. Test compounds were dissolved in dimethylsulfoxide (DMSO) at 2 mg/mL then appropriate dilutions in BG-11 Cu minus and BG-11 Cu plus media were prepared in sterilized microcentrifuge tubes. 100 μL aliquots were dispensed into flat-bottomed 96-well microtiter plates. Synechocystis was maintained under 24 h of light on BG-11 agar plates at 27° C. A loopful of cells was added to 50 mL of BG-11 Cu minus growth medium and the culture was incubated with shaking at 200 rpm at 27° C. for 24 h. The culture (10 to 20 mL aliquot) was centrifuged in a bench centrifuge at 2400 rpm for 2 min. The resulting cell pellet was resuspended in 5 mL sterile milli Q water (which had been treated with Chelex 100 resin using 0.5 g resin per liter of water by stirring at room temperature for 1 h), and recentrifuged. The cells were resuspended in BG-11 Cu minus medium, and the suspension adjusted to 4×10^5 spores per mL. Microtiter plates containing compounds as described above were inoculated with 100 μL of this cell suspension and the plates incubated at 27° C. for 72 h before assessing algal growth by measuring light scattering in a NepheloStar plate reader. Growth inhibition was determined by comparing growth in the presence of test compound with growth in control wells lacking test compound. Results for growth inhibition by test compounds in BG-11 Cu plus medium (% Inhn Plus Copper Observed) were compared with predicted values (% Inhn Plus Copper Predicted) that were calculated using the formula set forth by S. R. Colby in Weeds 1967, 15, 20-22 based on-results obtained for the same compounds in BG-11 Cu minus medium (% Inhn Minus Copper Observed) and the inhibition attributed to copper chloride alone, as determined by comparing growth in copper-minus and copper-plus media without any test compound across experiments. Results illustrate that hydrazones and copper produce a synergistic algicidal effect towards Synechocystis.

[2] abbreviates: Synechocystis, Test Concn. 0.05 μg/mL, BG-11 Cu minus medium, read-out: % Inhn. Minus Copper Observed.
Setting [3] is: Synechocystis, Test Concn. 0.0125 μg/mL, BG-11 Cu minus medium, read-out: % Inhn. Minus Copper Observed.

SMILES strings stand for the structures.

In general, melting point refers to the temperature, or range, at which the solid turns liquid. Regarding `O=C(N/N=C/c1c(Cl)ccc(Cl)c1O)c1cccc(Cl)c1` [Compound 44], the melting point was in the range of 232 to 234 °C. Besides, in the data set with C. reinhardtii CC-1928, the inhibition of growth at 1 µg/mL came out at 11% and the “% Inhn. Plus Copper Observed” value worked out at 94%. Moreover, in data set [1] (setting [2]), the inhibition of growth at 0.05 µg/mL stood at 61%. In addition, the “% Inhn. Plus Copper Observed” value in data set [1] (Test Concn. 0.05 μg/mL) is 93%.
In the same order, the values of `O=C(N/N=C/c1cc(Cl)cc(Cl)c1O)c1ccc2ccccc2c1` [Compound 10] are 215 to 217 °C, 24%, 93%, 44% and 95%.
Molecule `O=C(N/N=C/c1ccc(Cl)c(Cl)c1O)c1cccc(Cl)c1` [Compound 40] came in with a melting point of 219 to 222 °C. In the data set with C. reinhardtii CC-1928, the inhibition of growth at 1 µg/mL came to 22% and the “% Inhn. Plus Copper Observed” value amounted to 96%. Also, the inhibition of growth at 0.00625 µg/mL in data set [1] (Synechocystis, Test Concn. 0.00625 μg/mL, BG-11 Cu minus medium, read-out: % Inhn. Minus Copper Observed) stood at 4%. For the same molecule, the “% Inhn. Plus Copper Observed” value in data set [1] (Test Concn. 0.00625 μg/mL) is 64%.
`O=C(N/N=C/c1cc(C(F)(F)F)cc(Cl)c1O)c1cccc(F)c1` [Compound 28] had a melting point of 210 to 212 °C. In addition, in the data set on C. reinhardtii CC-1928, the inhibition of growth at 1 µg/mL worked out at 12% and the “% Inhn. Plus Copper Observed” value amounted to 97%. Also, the inhibition of growth at 0.05 µg/mL in data set [1] (setting [2]) was 13%. In addition, in data set [1] (Test Concn. 0.05 μg/mL), the “% Inhn. Plus Copper Observed” value is listed as 96%.
Regarding `Cc1ccc(C(=O)N/N=C/c2ccc(Cl)c(Cl)c2O)c(O)c1` [Compound 41], the melting point fell in the range of 271 to 278 °C. In the data set with C. reinhardtii CC-1928, the inhibition of growth at 1 µg/mL came to 28% and the “% Inhn. Plus Copper Observed” value worked out at 96%. The inhibition of growth at 0.0125 µg/mL in data set [1] (setting [3]) stood at 26%. Moreover, the “% Inhn. Plus Copper Observed” value in data set [1] (Test Concn. 0.0125 μg/mL) stood at 93%.
Turning to `O=C(N/N=C/c1cccc(C(F)(F)F)c1O)c1cccc(F)c1` [Compound 34], the melting point was in the range of 176 to 180 °C. In the data set on C. reinhardtii CC-1928, the inhibition of growth at 1 µg/mL turned out to be 8% and the “% Inhn. Plus Copper Observed” value is listed as 97%. The inhibition of growth at 0.05 µg/mL in data set [1] (setting [2]) worked out at 34%. Further, the “% Inhn. Plus Copper Observed” value in data set [1] (Test Concn. 0.05 μg/mL) is reported as 91%.
The corresponding values for `O=C(N/N=C/c1cc(C(F)(F)F)cc(Cl)c1O)c1ccccc1O` [Compound 30] are 258 to 260 °C, 29%, 92%, 0% and 92%.
The corresponding values for `C/C(=N\NC(=O)c1ccccc1)c1cc(Br)cc(Br)c1O` [Compound 61] are 242 to 245 °C, -56%, 94%, 61% and 96%.
In the same order, the values of `Cc1ccc(C(=O)N/N=C/c2cc(C(F)(F)F)cc(Cl)c2O)c(O)c1` [Compound 31] are 255 to 257 °C, -1%, 88%, 38% and 92%.
The molecule `O=C(N/N=C/c1cc(Cl)cc(C(F)(F)F)c1O)c1cccc(Cl)c1` [Compound 47] gave a melting point of 228 to 229 °C. Moreover, in the data set on C. reinhardtii CC-1928, the inhibition of growth at 1 µg/mL was -5% and the “% Inhn. Plus Copper Observed” value is 77%. Further, in data set [1] (setting [3]), the inhibition of growth at 0.0125 µg/mL worked out at 24%. Besides, the “% Inhn. Plus Copper Observed” value in data set [1] (Test Concn. 0.0125 μg/mL) turned out to be 60%.
On to `O=C(N/N=C/c1cccc(Cl)c1O)c1cccc(Cl)c1` [Compound 51], for which the melting point is 174 to 178 °C. Moreover, in the data set on C. reinhardtii CC-1928, the inhibition of growth at 1 µg/mL is -13% and the “% Inhn. Plus Copper Observed” value was 96%. In addition, the inhibition of growth at 0.05 µg/mL in data set [1] (setting [2]) came to 17%. In addition, the “% Inhn. Plus Copper Observed” value in data set [1] (Test Concn. 0.05 μg/mL) amounted to 97%.
`C/C(=N\NC(=O)c1ccc(Br)cc1)c1cccc([N+](=O)[O-])c1O` [Compound 60] registered a melting point of 244 to 252 °C. In the data set with C. reinhardtii CC-1928, the inhibition of growth at 1 µg/mL was -50% and the “% Inhn. Plus Copper Observed” value is listed as 89%. In addition, the inhibition of growth at 0.0125 µg/mL in data set [1] (setting [3]) was determined as 33%. The “% Inhn. Plus Copper Observed” value in data set [1] (Test Concn. 0.0125 μg/mL) was 50%.
In turn, `O=C(N/N=C/c1cccc(Cl)c1O)c1ccccc1O` [Compound 54] returned a melting point of 266 to 268 °C. For the same molecule, in the data set with C. reinhardtii CC-1928, the inhibition of growth at 1 µg/mL was -8% and the “% Inhn. Plus Copper Observed” value worked out at 75%. In addition, the inhibition of growth at 0.05 µg/mL in data set [1] (setting [2]) was 37%. Also, in data set [1] (Test Concn. 0.05 μg/mL), the “% Inhn. Plus Copper Observed” value came out at 88%.
In the same order, the values of `O=C(N/N=C/c1cc(Cl)cc(Cl)c1O)c1cccc(C(F)(F)F)c1` [Compound 22] are 165 to 169 °C, -14%, 96%, 48% and 94%.
The corresponding values for `C/C(=N\NC(=O)c1ccc(C)cc1)c1cccc(Cl)c1O` [Compound 59] are 195 to 200 °C, -6%, 92%, 1% and 93%.
